Laboratory results: ChEMBL document CHEMBL4387741, “Optimization of novel reversible Bruton's tyrosine kinase inhibitors identified using Tethering-fragment-based screens” (Bioorg Med Chem, 2019)

Key:
[1] = target: Mitogen-activated protein kinase 13 (Homo sapiens) (UniProt O15264); experiment: Inhibition of wild-type human full length p38-delta (M1 to L365 residues) expressed in bacterial expression system at 1 uM by Kinomescan method relative to control
[2] = target: Serine/threonine-protein kinase 26 (Homo sapiens) (UniProt Q9P289); experiment: Inhibition of wild-type human full length MST4 (M1 to P416 residues) expressed in mammalian expression system at 1 uM by Kinomescan method relative to control
[3] = target: Tyrosine-protein kinase JAK3 (Homo sapiens) (UniProt P52333); experiment: Inhibition of wild-type human partial length JAK3 JH1 catalytic domain (I781 to S1124 residues) expressed in mammalian expression system at 1 uM by Kinomescan method relative to control
[4] = target: Myosin light chain kinase 2, skeletal/cardiac muscle (Homo sapiens) (UniProt Q9H1R3); experiment: Inhibition of wild-type human partial length MYLK2 (D258 to K570 residues) expressed in bacterial expression system at 1 uM by Kinomescan method relative to control
[5] = target: Homeodomain-interacting protein kinase 4 (Homo sapiens) (UniProt Q8NE63); experiment: Inhibition of wild-type human partial length HIPK4 (M1 to V384 residues) expressed in bacterial expression system at 1 uM by Kinomescan method relative to control
[6] = target: Serine/threonine-protein kinase Nek10 (Homo sapiens) (UniProt Q6ZWH5); experiment: Inhibition of wild-type human partial length NEK10 (L488 to R809 residues) expressed in mammalian expression system at 1 uM by Kinomescan method relative to control
[7] = target: NUAK family SNF1-like kinase 2 (Homo sapiens) (UniProt Q9H093); experiment: Inhibition of wild-type human partial length SNARK (P22 to A333 residues) expressed in mammalian expression system at 1 uM by Kinomescan method relative to control
[8] = target: Serine/threonine-protein kinase 4 (Homo sapiens) (UniProt Q13043); experiment: Inhibition of wild-type human full length MST1 (M1 to F487 residues) expressed in bacterial expression system at 1 uM by Kinomescan method relative to control
[9] = test system: Phosphatidylinositol 4,5-bisphosphate 3-kinase catalytic subunit alpha isoform (Homo sapiens), P42336 [Q546K]; experiment: Inhibition of human partial length PIK3CA Q546K mutant (R108 to N1068 residues) expressed in mammalian expression system at 1 uM by Kinomescan method relative to control
[10] = target: Serine/threonine-protein kinase LATS2 (Homo sapiens) (UniProt Q9NRM7); experiment: Inhibition of wild-type human partial length LATS2 (Q641 to V1088 residues) expressed in mammalian expression system at 1 uM by Kinomescan method relative to control
[11] = target: Calcium/calmodulin-dependent protein kinase type II subunit gamma (Homo sapiens) (UniProt Q13555); experiment: Inhibition of wild-type human partial length CAMK2G (R9 to A303 residues) expressed in bacterial expression system at 1 uM by Kinomescan method relative to control
[12] = test system: Tyrosine-protein kinase ABL1 (Homo sapiens), P00519 [H396P]; experiment: Inhibition of human non-phosphorylated ABL1 H396P mutant (S229 to K512 residues) expressed in mammalian expression system at 1 uM by Kinomescan method relative to control
[13] = target: Uncharacterized serine/threonine-protein kinase SBK3 (Homo sapiens) (UniProt P0C264); experiment: Inhibition of wild-type human partial length SgK110 (L22 to R329 residues) expressed in bacterial expression system at 1 uM by Kinomescan method relative to control
[14] = target: CDK4/Cyclin D3 (Homo sapiens) (UniProt P11802+P30281); experiment: Inhibition of wild-type human full length CDK4/cyclinD3 (M1 to E303 residues) expressed in mammalian expression system at 1 uM by Kinomescan method relative to control
[15] = target: Interferon-induced, double-stranded RNA-activated protein kinase (Homo sapiens) (UniProt P19525); experiment: Inhibition of wild-type human partial length PRKR (F247 to C551 residues) expressed in bacterial expression system at 10 uM by Kinomescan method relative to control
[16] = target: Mitogen-activated protein kinase kinase kinase kinase 3 (Homo sapiens) (UniProt Q8IVH8); experiment: Inhibition of wild-type human partial length MAP4K3 (M1 to D301 residues) expressed in bacterial expression system at 10 uM by Kinomescan method relative to control
[17] = target: Dual specificity protein kinase CLK3 (Homo sapiens) (UniProt P49761); experiment: Inhibition of wild-type human full length CLK3 (M1 to R490 residues) expressed in bacterial expression system at 10 uM by Kinomescan method relative to control
[18] = target: Serine/threonine-protein kinase tousled-like 2 (Homo sapiens) (UniProt Q86UE8); experiment: Inhibition of wild-type human partial length TLK2 (E424 to N749 residues) expressed in bacterial expression system at 10 uM by Kinomescan method relative to control
[19] = target: Serine/threonine-protein kinase PAK 6 (Homo sapiens) (UniProt Q9NQU5); experiment: Inhibition of wild-type human partial length PAK6 (N298 to C681 residues) expressed in bacterial expression system at 10 uM by Kinomescan method relative to control
[20] = target: Dual specificity protein kinase CLK2 (Homo sapiens) (UniProt P49760); experiment: Inhibition of wild-type human partial length CLK2 (D144 to R498 residues) expressed in bacterial expression system at 10 uM by Kinomescan method relative to control
[21] = target: Testis-specific serine/threonine-protein kinase 1 (Homo sapiens) (UniProt Q9BXA7); experiment: Inhibition of wild-type human full length TSSK1B (M1 to Q367 residues) expressed in bacterial expression system at 10 uM by Kinomescan method relative to control
[22] = target: Serine/threonine-protein kinase PAK 1 (Homo sapiens) (UniProt Q13153); experiment: Inhibition of wild-type human partial length PAK1 (S149 to H545 residues) expressed in bacterial expression system at 10 uM by Kinomescan method relative to control
[23] = target: Serine/threonine-protein kinase Nek1 (Homo sapiens) (UniProt Q96PY6); experiment: Inhibition of wild-type human partial length NEK1 (M1 to K278 residues) expressed in bacterial expression system at 10 uM by Kinomescan method relative to control
[24] = target: 5'-AMP-activated protein kinase catalytic subunit alpha-2 (Homo sapiens) (UniProt P54646); experiment: Inhibition of wild-type human partial length AMPK alpha2 (M1 to E306 residues) expressed in bacterial expression system at 10 uM by Kinomescan method relative to control
[25] = target: Mitogen-activated protein kinase kinase kinase 15 (Homo sapiens) (UniProt Q6ZN16); experiment: Inhibition of wild-type human partial length MAP3K15 (T625 to L932 residues) expressed in mammalian expression system at 10 uM by Kinomescan method relative to control
[26] = target: Hormonally up-regulated neu tumor-associated kinase (Homo sapiens) (UniProt P57058); experiment: Inhibition of wild-type human partial length HUNK (A31 to K354 residues) expressed in bacterial expression system at 10 uM by Kinomescan method relative to control
Sequence of Hormonally up-regulated neu tumor-associated kinase (Homo sapiens) (P57058 whole entry, the tested form may be a part): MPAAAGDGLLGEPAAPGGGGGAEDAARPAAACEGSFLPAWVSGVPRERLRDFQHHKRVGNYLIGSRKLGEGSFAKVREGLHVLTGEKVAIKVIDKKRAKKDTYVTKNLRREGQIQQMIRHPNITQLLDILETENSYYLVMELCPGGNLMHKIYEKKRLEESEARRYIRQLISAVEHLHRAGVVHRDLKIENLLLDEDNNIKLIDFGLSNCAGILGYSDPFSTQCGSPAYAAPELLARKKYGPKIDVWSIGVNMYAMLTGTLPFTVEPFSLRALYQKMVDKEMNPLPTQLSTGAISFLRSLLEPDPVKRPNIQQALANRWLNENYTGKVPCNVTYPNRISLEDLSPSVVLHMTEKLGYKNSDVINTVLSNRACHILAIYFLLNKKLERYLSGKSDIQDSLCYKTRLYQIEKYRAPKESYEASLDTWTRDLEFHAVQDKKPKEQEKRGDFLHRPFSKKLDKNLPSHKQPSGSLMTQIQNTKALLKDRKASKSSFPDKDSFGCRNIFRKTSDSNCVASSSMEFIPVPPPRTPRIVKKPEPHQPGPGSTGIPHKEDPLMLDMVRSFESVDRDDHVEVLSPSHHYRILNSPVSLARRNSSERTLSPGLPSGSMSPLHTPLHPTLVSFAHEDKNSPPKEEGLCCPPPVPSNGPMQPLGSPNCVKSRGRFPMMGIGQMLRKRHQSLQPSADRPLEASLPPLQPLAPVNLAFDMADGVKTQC

Sequence of Homeodomain-interacting protein kinase 4 (Homo sapiens) (Q8NE63 whole entry, the tested form may be a part): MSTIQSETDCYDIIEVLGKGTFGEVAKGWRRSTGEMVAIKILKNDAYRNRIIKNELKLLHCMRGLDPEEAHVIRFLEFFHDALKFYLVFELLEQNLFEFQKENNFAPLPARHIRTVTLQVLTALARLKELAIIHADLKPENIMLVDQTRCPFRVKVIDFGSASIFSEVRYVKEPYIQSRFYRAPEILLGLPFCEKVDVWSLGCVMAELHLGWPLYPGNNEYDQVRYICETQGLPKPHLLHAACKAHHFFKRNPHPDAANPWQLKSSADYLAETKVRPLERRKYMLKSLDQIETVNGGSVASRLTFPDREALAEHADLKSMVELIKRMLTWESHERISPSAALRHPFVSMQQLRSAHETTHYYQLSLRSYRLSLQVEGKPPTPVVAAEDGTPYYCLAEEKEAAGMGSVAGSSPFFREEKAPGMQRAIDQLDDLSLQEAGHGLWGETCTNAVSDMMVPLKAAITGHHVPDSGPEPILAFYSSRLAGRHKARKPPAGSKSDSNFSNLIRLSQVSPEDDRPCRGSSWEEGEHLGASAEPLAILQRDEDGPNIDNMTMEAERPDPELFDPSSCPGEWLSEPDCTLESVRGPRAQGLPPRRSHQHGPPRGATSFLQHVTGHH
Sequence of Serine/threonine-protein kinase PAK 1 (Homo sapiens) (Q13153 whole entry, the tested form may be a part): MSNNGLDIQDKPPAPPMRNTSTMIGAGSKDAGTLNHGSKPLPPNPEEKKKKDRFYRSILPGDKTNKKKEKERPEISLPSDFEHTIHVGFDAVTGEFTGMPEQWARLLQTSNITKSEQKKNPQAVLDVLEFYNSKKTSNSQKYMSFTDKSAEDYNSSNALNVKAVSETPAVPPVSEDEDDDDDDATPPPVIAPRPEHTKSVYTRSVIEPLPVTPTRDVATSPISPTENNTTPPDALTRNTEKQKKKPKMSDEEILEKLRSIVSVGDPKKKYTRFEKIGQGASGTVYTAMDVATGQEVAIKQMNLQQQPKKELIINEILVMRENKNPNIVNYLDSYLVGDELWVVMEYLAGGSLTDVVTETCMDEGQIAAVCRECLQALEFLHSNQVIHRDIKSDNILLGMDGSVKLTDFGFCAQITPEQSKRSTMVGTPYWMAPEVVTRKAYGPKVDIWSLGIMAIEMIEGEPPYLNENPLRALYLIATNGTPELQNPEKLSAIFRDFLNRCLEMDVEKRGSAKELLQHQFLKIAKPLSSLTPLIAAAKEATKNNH
Sequence of Mitogen-activated protein kinase kinase kinase kinase 3 (Homo sapiens) (Q8IVH8 whole entry, the tested form may be a part): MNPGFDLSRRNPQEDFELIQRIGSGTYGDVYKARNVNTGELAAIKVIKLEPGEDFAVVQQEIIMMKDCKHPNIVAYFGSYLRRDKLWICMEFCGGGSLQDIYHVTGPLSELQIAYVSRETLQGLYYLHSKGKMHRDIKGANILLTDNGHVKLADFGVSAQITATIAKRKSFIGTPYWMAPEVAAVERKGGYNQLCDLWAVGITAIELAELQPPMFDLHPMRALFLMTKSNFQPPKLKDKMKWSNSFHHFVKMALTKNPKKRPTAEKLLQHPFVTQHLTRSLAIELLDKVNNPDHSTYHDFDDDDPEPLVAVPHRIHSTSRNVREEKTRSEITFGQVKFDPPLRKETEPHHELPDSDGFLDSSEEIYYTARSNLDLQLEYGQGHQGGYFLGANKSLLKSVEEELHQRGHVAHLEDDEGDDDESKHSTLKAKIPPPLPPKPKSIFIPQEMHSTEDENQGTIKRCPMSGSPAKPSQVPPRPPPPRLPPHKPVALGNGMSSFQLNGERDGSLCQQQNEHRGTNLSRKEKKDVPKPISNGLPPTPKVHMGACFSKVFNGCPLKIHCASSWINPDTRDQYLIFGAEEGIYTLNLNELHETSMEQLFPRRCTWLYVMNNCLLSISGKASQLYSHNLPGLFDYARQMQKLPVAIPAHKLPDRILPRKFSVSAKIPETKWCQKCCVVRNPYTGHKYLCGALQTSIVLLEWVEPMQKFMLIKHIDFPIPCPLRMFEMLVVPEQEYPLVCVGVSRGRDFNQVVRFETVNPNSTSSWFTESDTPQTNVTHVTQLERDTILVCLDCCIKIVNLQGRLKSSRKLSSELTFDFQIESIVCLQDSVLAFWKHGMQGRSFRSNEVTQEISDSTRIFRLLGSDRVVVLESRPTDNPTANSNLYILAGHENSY
Sequence of Serine/threonine-protein kinase LATS2 (Homo sapiens) (Q9NRM7 whole entry, the tested form may be a part): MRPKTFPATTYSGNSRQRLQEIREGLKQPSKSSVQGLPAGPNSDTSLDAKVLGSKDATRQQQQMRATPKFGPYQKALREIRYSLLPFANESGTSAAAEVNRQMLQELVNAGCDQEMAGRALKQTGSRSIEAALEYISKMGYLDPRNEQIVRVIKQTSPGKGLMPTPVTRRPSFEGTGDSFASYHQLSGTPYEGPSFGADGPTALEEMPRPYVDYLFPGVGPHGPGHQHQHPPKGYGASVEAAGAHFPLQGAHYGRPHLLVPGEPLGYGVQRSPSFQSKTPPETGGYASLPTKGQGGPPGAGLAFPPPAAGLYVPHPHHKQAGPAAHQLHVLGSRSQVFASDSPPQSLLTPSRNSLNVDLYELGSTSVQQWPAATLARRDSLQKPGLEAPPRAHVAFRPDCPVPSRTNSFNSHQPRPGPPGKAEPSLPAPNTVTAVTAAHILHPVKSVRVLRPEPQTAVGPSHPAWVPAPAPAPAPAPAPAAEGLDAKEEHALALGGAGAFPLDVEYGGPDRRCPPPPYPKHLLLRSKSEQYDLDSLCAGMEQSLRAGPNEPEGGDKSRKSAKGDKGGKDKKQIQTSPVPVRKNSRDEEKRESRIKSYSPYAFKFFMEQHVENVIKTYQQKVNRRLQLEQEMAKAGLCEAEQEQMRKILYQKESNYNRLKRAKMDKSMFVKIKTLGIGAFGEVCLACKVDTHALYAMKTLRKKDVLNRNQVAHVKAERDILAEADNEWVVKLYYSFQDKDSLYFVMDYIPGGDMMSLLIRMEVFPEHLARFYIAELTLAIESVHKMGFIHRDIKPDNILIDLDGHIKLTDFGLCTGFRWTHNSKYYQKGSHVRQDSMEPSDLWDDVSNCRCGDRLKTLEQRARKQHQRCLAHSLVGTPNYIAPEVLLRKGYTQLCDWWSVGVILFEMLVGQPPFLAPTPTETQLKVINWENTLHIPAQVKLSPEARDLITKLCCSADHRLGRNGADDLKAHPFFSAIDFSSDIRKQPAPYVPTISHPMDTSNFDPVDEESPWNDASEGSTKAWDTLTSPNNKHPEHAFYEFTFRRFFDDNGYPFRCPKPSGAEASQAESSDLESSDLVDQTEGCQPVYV
Sequence of NUAK family SNF1-like kinase 2 (Homo sapiens) (Q9H093 whole entry, the tested form may be a part): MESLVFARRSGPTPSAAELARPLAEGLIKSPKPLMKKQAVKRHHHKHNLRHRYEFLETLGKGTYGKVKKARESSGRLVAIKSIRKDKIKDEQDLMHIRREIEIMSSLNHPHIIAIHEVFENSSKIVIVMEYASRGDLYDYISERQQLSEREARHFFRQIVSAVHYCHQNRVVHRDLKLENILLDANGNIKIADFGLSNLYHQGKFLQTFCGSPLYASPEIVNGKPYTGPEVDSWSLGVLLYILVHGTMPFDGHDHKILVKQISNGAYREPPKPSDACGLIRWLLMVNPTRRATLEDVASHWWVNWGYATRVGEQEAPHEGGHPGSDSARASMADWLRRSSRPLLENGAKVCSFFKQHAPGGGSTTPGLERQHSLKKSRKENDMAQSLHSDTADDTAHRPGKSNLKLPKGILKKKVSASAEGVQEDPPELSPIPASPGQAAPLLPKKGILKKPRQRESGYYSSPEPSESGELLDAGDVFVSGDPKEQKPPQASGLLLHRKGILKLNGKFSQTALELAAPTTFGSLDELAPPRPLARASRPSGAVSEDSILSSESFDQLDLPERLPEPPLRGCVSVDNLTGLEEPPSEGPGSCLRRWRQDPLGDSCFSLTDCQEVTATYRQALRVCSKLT
Sequence of Serine/threonine-protein kinase 4 (Homo sapiens) (Q13043 whole entry, the tested form may be a part, canonical isoform): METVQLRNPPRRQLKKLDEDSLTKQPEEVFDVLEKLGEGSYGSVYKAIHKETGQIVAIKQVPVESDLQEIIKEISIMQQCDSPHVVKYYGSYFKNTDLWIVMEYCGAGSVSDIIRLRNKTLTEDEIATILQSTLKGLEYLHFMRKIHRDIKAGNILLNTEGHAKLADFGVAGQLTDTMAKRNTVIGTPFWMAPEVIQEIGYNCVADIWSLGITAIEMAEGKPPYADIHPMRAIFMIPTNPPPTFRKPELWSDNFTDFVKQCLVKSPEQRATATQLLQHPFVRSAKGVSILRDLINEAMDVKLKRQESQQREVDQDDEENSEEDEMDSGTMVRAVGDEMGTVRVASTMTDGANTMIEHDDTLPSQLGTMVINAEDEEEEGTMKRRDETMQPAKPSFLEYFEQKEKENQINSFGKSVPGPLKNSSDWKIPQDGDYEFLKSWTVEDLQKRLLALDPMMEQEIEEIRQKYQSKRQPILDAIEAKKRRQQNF

O=C(Nc1cccc([C@@H]2CN(c3ncnc4[nH]ccc34)CCN2CCO)c1)Nc1c(F)cccc1N1CCCC1
inhibition [1]: 100%
inhibition [2]: 54%
inhibition [3]: 4.3%
inhibition [4]: 100%
inhibition [5]: 96%
inhibition [6]: 26%
inhibition [7]: 6.1%
inhibition [8]: 78%
inhibition [9]: 89%
inhibition [10]: 86%
inhibition [11]: 99%
inhibition [12]: 96%
inhibition [13]: 100%
inhibition [14]: 100%

O=C(Nc1cccc([C@H]2CCCN(c3ncnc4[nH]ccc34)C2)c1)Nc1ccccc1N1CCCC1
inhibition [15]: 87%
inhibition [16]: 47%
inhibition [17]: 87%
inhibition [18]: 89%
inhibition [19]: 85%
inhibition [20]: 53%
inhibition [21]: 100%
inhibition [22]: 90%
inhibition [23]: 100%
inhibition [24]: 4.7%
inhibition [25]: 50%
inhibition [26]: 100%
